# What was measured:
# [1] = target: nuclear factor-kappa B (NF-kB)-inducing kinase (NIK) (Homo sapiens (Human), UniProt Q99558); assay: NIK enzyme inhibition assay (Transcreener ADP fluorescence polarization); format: biochemical; conditions: for NIK enzyme inhibition, potency in words relative to the other stereoisomers: stereoisomers separated by chiral SFC, qualitative; for Ki: purified NIK 0.5 nM, 10 μM ATP, Morrison equation, read-out: NIK ADP-FP Ki
# Experimental: The ability of the nuclear factor-kappa B (NF-kB)-inducing kinase (NIK) to catalyze the hydrolysis of adenosine-5′-triphosphate (ATP) was monitored using the Transcreener ADP (adenosine-5′-diphosphate) assay (BellBrook Labs). […] Reactions were quenched by the addition of 20 mM 2,2′,2″,2′″-(ethane-1,2-diyldinitrilo)tetraacetic acid and 0.01% Brij 35. The tracer bound to the antibody was displaced by the ADP generated during the NIK reaction, which causes a decrease in fluorescence polarization that was measured by laser excitation at 633 nm with a Fluorescence Correlation Spectroscopy Plus reader (Evotec AG). Equilibrium dissociation constant (Ki) values for NIK inhibitors are calculated from plots of activity vs. inhibitor concentration using Morrison's quadratic equation that accounts for the potential of tight binding, and by also applying the conversion factor that accounted for competitive inhibition and the concentration of substrate used in the assay relative to its Michaelis constant (Km).
# [2] = Liver microsome stability; format: in vitro ADME; conditions: for HLM CL (human liver microsome clearance): human liver microsomes; for stability in human liver microsomes versus the corresponding pyrrolidinone comparator compound: qualitative comparison
# Experimental: Metabolic stability assays in liver microsomes are conducted with pooled female CD-1 mouse, male Sprague-Dawley rat, male beagle dog, male cynomolgus monkey, and mixed male and female human liver microsomal incubations. The general assay conditions are as follows. Incubation mixtures consisted of liver microsomes (0.5 mg of microsomal protein/ml) and the test compound (1.0 μM) with or without NADPH (1.0 mM) in the potassium phosphate buffer (100 mM; pH 7.4) with a final incubation volume of 0.25 ml. Reactions are initiated by the addition of NADPH or buffer and shaken in a water bath open to the air at 37° C. At times 0, 20, 40, and 60 min, aliquots (50 μl) are removed and added to termination mixtures (100 μl) containing acetonitrile and an internal standard. The samples are then centrifuged for 10 min at 2000 g. The supernatant (90 μl) is removed, combined with 180 μl of water, and analyzed by LC-MS/MS.
# Metabolic stability of the test compounds were evaluated in human liver microsomes following known protocols described in Halladay, et al. Drug Metabol. Lett. 2007, 1:67-72.
# [3] = system: REL-A (p65) nuclear translocation in HeLa cells; assay: REL-A HeLa nuclear translocation assay (TNF-α stimulated, high content imaging); format: cell-based; conditions: Homo sapiens, 10 ng/mL TNF-α
# Experimental: (§1) (3) A third set of cell assays are used to define the selectivity of NIK inhibitors toward inhibition of classical vs. non-classical NF-kB signaling and rely on quantification of the nuclear translocation of p52 (NF-kB2) and REL-A (p65) using high content cellular imaging. For the p52 (non-classical NF-kB signaling) nuclear translocation assay, HeLa cells are treated with different concentrations of compounds (0.2% DMSO final) in medium containing 10% fetal bovine serum and then stimulated with 100 ng/mL of an anti-lymphotoxin beta receptor antibody (R&D Systems) for 5 hours. In the REL-A nuclear translocation assay, HeLa cells are incubated with compounds (0.2% DMSO final) for 4.5 hours in medium containing 10% fetal bovine serum before stimulating them with 10 ng/mL tumor necrosis factor (TNF)-α (R&D Systems) for 30 minutes. Cells are fixed with 4% paraformaldehyde, permeabilized by adding 0.1% Triton X-100 in phosphate buffered saline, and then are incubated with either 2 μg/mL anti-p52 antibody (Millipore) or 400 ng/mL anti-REL-A (p65) antibody (Santa Cruz Biotechnology). Finally, the cells are incubated with an Alexa488-labeled secondary antibody (Invitrogen) and DRAQ5 DNA stain (Biostatus). Imaging is carried out using an Opera reader (Perkin Elmer) and data are analyzed with the aid of Acapella software (Perkin Elmer). The p52 or REL-A translocation into the nucleus is quantified by the ratio of the nuclear to cytoplasmic signal intensity. […] The test compounds have the corresponding inhibitory values (IC50) for NIK REL-A (p65) and p52 Translocation Assays as set forth in Table B2.
# [4] = system: p52 (NF-kB2) nuclear translocation in HeLa cells; assay: p52 HeLa nuclear translocation assay (anti-lymphotoxin beta receptor antibody stimulated); format: cell-based; conditions: Homo sapiens, 100 ng/mL anti-lymphotoxin beta receptor antibody
# Experimental: as §1
# Hepatocyte stability = format: in vitro ADME; conditions: human hepatocytes
# Experimental: General. Metabolic stability assays in hepatocytes are conducted using cryopreserved pooled female CD-1 mouse, male Sprague-Dawley rat, male beagle dog, male cynomolgus monkey, and mixed male and female human hepatocytes (CellzDirect). Vials of hepatocytes are thawed rapidly in a water bath set at 37° C. and then are diluted with Dulbecco's modified Eagle's medium (DMEM), pH 7.4. Cells are isolated by centrifugation, pooled, and resuspended in DMEM at 1.0 million viable cells/ml. Membrane integrity of the cells is assessed by trypan blue exclusion. The test compound is dissolved in dimethyl sulfoxide at a final concentration of 10 mM. This test compound stock is diluted further to 2 μM in DMEM (125 μl) before the addition of an equal volume of the 10^6 cells/ml cell suspension. The test compound (final incubation concentration of 1.0 μM with 0.1% dimethyl sulfoxide) and cells (final concentration of 0.5×10^6 cells/ml) are incubated at 37° C. in a 95% air/5% CO2 atmosphere for 3 h. Aliquots (50 μl) are removed at 0, 1, 2, and 3 hours and added to termination mixtures (100 μl) containing acetonitrile and an internal standard. The samples are then centrifuged for 10 min at 2000 g. The supernatant (90 μl) is removed, combined with 180 μl of water, and analyzed by LC-MS/MS.
# Metabolic stability of the test compounds were evaluated also in human hepatocytes, following protocols described in Hallifax, et al. Drug Metabol. Disposition, 2005, 33:1852-1858.
# Sequence of nuclear factor-kappa B (NF-kB)-inducing kinase (NIK) (Q99558 whole entry): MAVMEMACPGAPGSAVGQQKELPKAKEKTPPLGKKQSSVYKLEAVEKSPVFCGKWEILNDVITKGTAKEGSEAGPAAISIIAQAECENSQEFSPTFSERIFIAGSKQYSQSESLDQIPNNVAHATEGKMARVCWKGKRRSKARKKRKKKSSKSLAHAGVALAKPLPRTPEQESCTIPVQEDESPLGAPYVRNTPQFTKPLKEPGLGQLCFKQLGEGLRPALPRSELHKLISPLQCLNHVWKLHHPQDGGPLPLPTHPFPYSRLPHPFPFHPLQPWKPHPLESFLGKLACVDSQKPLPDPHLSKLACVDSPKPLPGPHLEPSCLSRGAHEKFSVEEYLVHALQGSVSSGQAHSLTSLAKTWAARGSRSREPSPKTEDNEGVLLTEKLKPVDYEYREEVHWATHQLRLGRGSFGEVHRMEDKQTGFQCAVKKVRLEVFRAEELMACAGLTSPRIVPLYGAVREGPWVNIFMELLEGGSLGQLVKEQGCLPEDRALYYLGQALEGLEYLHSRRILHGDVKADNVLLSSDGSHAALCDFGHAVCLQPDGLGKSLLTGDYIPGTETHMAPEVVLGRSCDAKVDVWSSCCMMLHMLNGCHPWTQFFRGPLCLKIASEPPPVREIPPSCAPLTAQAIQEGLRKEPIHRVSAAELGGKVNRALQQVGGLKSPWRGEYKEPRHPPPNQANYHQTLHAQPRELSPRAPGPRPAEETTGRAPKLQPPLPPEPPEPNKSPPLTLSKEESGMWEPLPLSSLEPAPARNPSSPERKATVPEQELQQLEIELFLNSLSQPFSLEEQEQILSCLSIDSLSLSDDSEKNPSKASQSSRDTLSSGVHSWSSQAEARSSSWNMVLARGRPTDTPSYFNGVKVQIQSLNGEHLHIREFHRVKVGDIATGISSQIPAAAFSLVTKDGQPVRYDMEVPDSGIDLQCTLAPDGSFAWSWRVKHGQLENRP
smiles,measurement,setting,value
"COc1ccn2c(C(N)=O)nc(-c3cccc(C#C[C@]4(O)C(=O)N(C)[C@@H]5C[C@@H]54)c3)c2c1 [1-(3-(((1R,4S,5S)-4-hydroxy-2-methyl-3-oxo-2-azabicyclo[3.1.0]hexan-4-yl)ethynyl)phenyl)-7-methoxyimidazo[1,5-a]pyridine-3-carboxamide]","NIK enzyme inhibition, potency in words relative to the other stereoisomers",[1],third most potent NIK enzyme inhibitor among the 4 stereoisomers
"COc1ccn2c(C(N)=O)nc(-c3cccc(C#C[C@@]4(O)C(=O)N(C)[C@@H]5C[C@@H]54)c3)c2c1 [Compound 4, 1-(3-(((1R,4R,5S)-4-hydroxy-2-methyl-3-oxo-2-azabicyclo[3.1.0]hexan-4-yl)ethynyl)phenyl)-7-methoxyimidazo[1,5-a]pyridine-3-carboxamide]",HLM CL (human liver microsome clearance),[2],12 mL/min/kg
same,stability in human liver microsomes versus the corresponding pyrrolidinone comparator compound,[2],better stability
same,Ki,[1],0.05 nM
same,"NIK enzyme inhibition, potency in words relative to the other stereoisomers",[1],most potent NIK enzyme inhibitor among the 4 stereoisomers
"CN1C(=O)[C@](O)(C#Cc2cccc(-c3nc(C(N)=O)n4ccccc34)c2)[C@@H]2C[C@@H]21 [1-(3-(((1 S,4R,5R)-4-hydroxy-2-methyl-3-oxo-2-azabicyclo[3.1.0]hexan-4-yl)ethynyl)phenyl)imidazo[1,5-a]pyridine-3-carboxamide]","NIK enzyme inhibition, potency in words relative to the other stereoisomers",[1],second most potent NIK enzyme inhibitor among the 4 stereoisomers
"CN1C(=O)[C@@](O)(C#Cc2cccc(-c3nc(C(N)=O)n4ccccc34)c2)[C@@H]2C[C@@H]21 [1-(3-(((1 S,4S,5R)-4-hydroxy-2-methyl-3-oxo-2-azabicyclo[3.1.0]hexan-4-yl)ethynyl)phenyl)imidazo[1,5-a]pyridine-3-carboxamide]","NIK enzyme inhibition, potency in words relative to the other stereoisomers",[1],no measurable inhibition
"CN1C(=O)C(O)(C#Cc2cccc(-c3nc(C(N)=O)c(N)s3)c2)C2CC21 (single isomer, unassigned) [5-amino-2-(3-((4-hydroxy-2-methyl-3-oxo-2-azabicyclo[3.1.0]hexan-4-yl)ethynyl)phenyl)thiazole-4-carboxamide]","NIK enzyme inhibition, potency in words relative to the other stereoisomers",[1],less potent NIK enzyme inhibitor than Compound 6
CN1CC[C@@](O)(C#Cc2cccc(-n3nc(C(N)=O)c4cccnc43)c2)C1=O [Compound C-1],IC50,[3],> 20000 nM
same,IC50,[4],79.5 nM
CN1CC[C@@](O)(C#Cc2cccc(-c3nc(C(N)=O)c4ccccn34)c2)C1=O [Compound C-5],IC50,[3],> 20000 nM
same,IC50,[4],240 nM
"CN1C(=O)[C@@](O)(C#Cc2cccc(-c3nc(C(N)=O)n4ccccc34)c2)[C@H]2C[C@H]21 [1-(3-(((1R,4S,5S)-4-hydroxy-2-methyl-3-oxo-2-azabicyclo[3.1.0]hexan-4-yl)ethynyl)phenyl)imidazo[1,5-a]pyridine-3-carboxamide]","NIK enzyme inhibition, potency in words relative to the other stereoisomers",[1],third most potent NIK enzyme inhibitor among the 4 stereoisomers
"CN1C(=O)[C@@](O)(C#Cc2cccc(-n3nc(C(N)=O)c4cccnc43)c2)[C@H]2C[C@H]21 [1-(3-(((1R,4S,5S)-4-hydroxy-2-methyl-3-oxo-2-azabicyclo[3.1.0]hexan-4-yl)ethynyl)phenyl)-1H-pyrazolo[3,4-b]pyridine-3-carboxamide]","NIK enzyme inhibition, potency in words relative to the other stereoisomers",[1],no measurable inhibition
"CN1C(=O)[C@](O)(C#Cc2cccc(-c3nc(C(N)=O)c(N)s3)c2)[C@H]2C[C@H]21 [Compound 6, 5-amino-2-(3-(((1R,4R,5S)-4-hydroxy-2-methyl-3-oxo-2-azabicyclo[3.1.0]hexan-4-yl)ethynyl)phenyl)thiazole-4-carboxamide]",Hep CL (human hepatocyte clearance),Hepatocyte stability,2.7 mL/min/kg
same,HLM CL (human liver microsome clearance),[2],1.6 mL/min/kg
same,stability in human liver microsomes versus the corresponding pyrrolidinone comparator compound,[2],better stability
same,Ki,[1],0.05 nM
same,"NIK enzyme inhibition, potency in words relative to the other stereoisomers",[1],most potent NIK enzyme inhibitor among the 4 stereoisomers
"CN1CC[C@@](O)(C#Cc2cccc(-c3nc(C(N)=O)c(N)s3)c2)C1=O [Compound C-6, reference compound]",IC50,[3],> 5000 nM
same,IC50,[4],79.1 nM
same,Hep CL (human hepatocyte clearance),Hepatocyte stability,1.1 mL/min/kg
same,HLM CL (human liver microsome clearance),[2],5.1 mL/min/kg
same,Ki,[1],0.13 nM
"CN1C(=O)[C@@](O)(C#Cc2cccc(-c3nc(C(N)=O)c4ccccn34)c2)[C@@H]2C[C@@H]21 [3-(3-(((1S,4S,5R)-4-hydroxy-2-methyl-3-oxo-2-azabicyclo[3.1.0]hexan-4-yl)ethynyl)phenyl)imidazo[1,5-a]pyridine-1-carboxamide]","NIK enzyme inhibition, potency in words relative to the other stereoisomers",[1],third most potent NIK enzyme inhibitor among the 4 stereoisomers
"COc1ccn2c(C(N)=O)nc(-c3cccc(C#C[C@]4(O)C(=O)N(C)[C@H]5C[C@H]54)c3)c2c1 [1-(3-(((1S,4S,5R)-4-hydroxy-2-methyl-3-oxo-2-azabicyclo[3.1.0]hexan-4-yl)ethynyl)phenyl)-7-methoxyimidazo[1,5-a]pyridine-3-carboxamide]","NIK enzyme inhibition, potency in words relative to the other stereoisomers",[1],no measurable inhibition
"CN1C(=O)[C@](O)(C#Cc2cccc(-c3nc(C(N)=O)c4ccccn34)c2)[C@@H]2C[C@@H]21 [3-(3-(((1 S,4R,5R)-4-hydroxy-2-methyl-3-oxo-2-azabicyclo[3.1.0]hexan-4-yl)ethynyl)phenyl)imidazo[1,5-a]pyridine-1-carboxamide]","NIK enzyme inhibition, potency in words relative to the other stereoisomers",[1],second most potent NIK enzyme inhibitor among the 4 stereoisomers
"CN1C(=O)[C@@](O)(C#Cc2cccc(-n3nc(C(N)=O)c4cccnc43)c2)[C@@H]2C[C@@H]21 [1-(3-(((1 S,4S,5R)-4-hydroxy-2-methyl-3-oxo-2-azabicyclo[3.1.0]hexan-4-yl)ethynyl)phenyl)-1H-pyrazolo[3,4-b]pyridine-3-carboxamide]","NIK enzyme inhibition, potency in words relative to the other stereoisomers",[1],no measurable inhibition
"COc1ccn2c(C(N)=O)nc(-c3cccc(C#C[C@@]4(O)C(=O)N(C)[C@H]5C[C@H]54)c3)c2c1 [1-(3-(((1 S,4R,5R)-4-hydroxy-2-methyl-3-oxo-2-azabicyclo[3.1.0]hexan-4-yl)ethynyl)phenyl)-7-methoxyimidazo[1,5-a]pyridine-3-carboxamide]","NIK enzyme inhibition, potency in words relative to the other stereoisomers",[1],second most potent NIK enzyme inhibitor among the 4 stereoisomers
